Assays:
[1] = Canine pharmacokinetics of enteric coated formulations at 0.15 mg/kg (T1) and 0.75 mg/kg (T5); assay type: in vivo; details: dogs, oral enteric coated formulation; for AUC(0-inf) / AUC(0-t) / Cmax / Tmax / half-life: dog, blood, po
[2] = Feline repeat dose toxicokinetic study of oral enteric-coated formulations; assay type: in vivo; details: whole blood, cats, oral enteric-coated formulation, Mean; for AUC(0-t): read-out: AUC0-72
Method: This represents a first-in-species repeat dose test toxicokinetic study in cats. Pharmacokinetic sampling was performed after the first and last doses.

healthy dogs = details: 0.05 or 0.1 mg/kg orally three times per week, 10 weeks; cited from earlier work
[3] = cited from earlier work
[4] = typical gastric pH range; cited from earlier work
[5] = 0.15 mg/kg, T1 0.15 mg/kg, Arith. Mean
[6] = 0.15 mg/kg, T1 0.15 mg/kg, Median
[7] = 0.75 mg/kg, T5 0.75 mg/kg, Arith. Mean
[8] = 0.75 mg/kg, T5 0.75 mg/kg, Median
[9] = 0.15 mg/kg, 0.15 mg/kg three times a week, Day 26, whole blood
[10] = 0.15 mg/kg, 0.15 mg/kg, Day 0, whole blood
[11] = 0.45 mg/kg, 0.45 mg/kg three times a week, Day 26, whole blood
[12] = 0.45 mg/kg, 0.45 mg/kg, Day 0, whole blood
[13] = 0.75 mg/kg, 0.75 mg/kg three times a week, Day 26, whole blood
[14] = 0.75 mg/kg, 0.75 mg/kg, Day 0, whole blood

AUC(0-inf) [1, 5]: 42.7 ng·h/mL
AUC(0-t) [1, 5]: 40.8 ng·h/mL
Cmax [1, 5]: 2.23 ng/mL
Tmax [1, 5]: 1.83 h
half-life [1, 5]: 981 min
AUC(0-inf) [1, 6]: 38.5 ng·h/mL
AUC(0-t) [1, 6]: 45.2 ng·h/mL
Cmax [1, 6]: 2.17 ng/mL
Tmax [1, 6]: 2 h
half-life [1, 6]: 815 min
AUC(0-inf) [1, 7]: 102 ng·h/mL
AUC(0-t) [1, 7]: 111 ng·h/mL
Cmax [1, 7]: 4.41 ng/mL
Tmax [1, 7]: 2.17 h
half-life [1, 7]: 1220 min
AUC(0-inf) [1, 8]: 98.4 ng·h/mL
AUC(0-t) [1, 8]: 96.9 ng·h/mL
Cmax [1, 8]: 3.14 ng/mL
Tmax [1, 8]: 2 h
half-life [1, 8]: 1230 min
kelim ([1]; T1 0.15 mg/kg, Arith. Mean): 0.0596 h⁻¹
kelim ([1]; T1 0.15 mg/kg, Median): 0.0627 h⁻¹
kelim ([1]; T5 0.75 mg/kg, Arith. Mean): 0.0357 h⁻¹
kelim ([1]; T5 0.75 mg/kg, Median): 0.0338 h⁻¹
Compound: CO[C@H]1C[C@@H]2CC[C@@H](C)[C@@](O)(O2)C(=O)C(=O)N2CCCC[C@H]2C(=O)O[C@H]([C@H](C)C[C@@H]2CC[C@@H](O)[C@H](OC)C2)CC(=O)[C@H](C)/C=C(\C)[C@@H](O)[C@@H](OC)C(=O)[C@H](C)C[C@H](C)/C=C/C=C/C=C/1C [rapamycin]
Cmax [2, 9]: 2.26 ng/mL
AUC(0-t) [2, 9]: 54 ng·h/mL
Cmax [2, 10]: 2.85 ng/mL
Tmax [2, 10]: 4 h
AUC(0-t) [2, 10]: 41 ng·h/mL
Cmax [2, 11]: 6.98 ng/mL
Tmax [2, 11]: 2 h
AUC(0-t) [2, 11]: 182 ng·h/mL
Cmax [2, 12]: 4.4 ng/mL
AUC(0-t) [2, 12]: 99.5 ng·h/mL
Cmax [2, 13]: 8.07 ng/mL
Tmax [2, 13]: 2 h
AUC(0-t) [2, 13]: 248 ng·h/mL
Cmax [2, 14]: 7.56 ng/mL
Tmax [2, 14]: 2 h
AUC(0-t) [2, 14]: 135 ng·h/mL
clinical side effects and hematological changes (healthy dogs): did not cause significant clinical side effects or abnormal hematological changes
solubility in water [3]: poorly soluble in water
acid stability [4]: rapidly degrades within the typical gastric pH range
